Reference: patent publication US6472391B2, “Nitrogen-containing heterocyclic compounds” (Millennium Pharmaceuticals, Inc., priority 1996, dated 2002)

Assays:
human β-PDGF receptor = target: T1, human β-PDGF receptor (Homo sapiens, UniProt P09619); test: Inhibitory effect on phosphorylation of PDGF receptor; assay type: cell-based; conditions: CHO cells expressing human β-PDGF receptor
T1 construct: expressed in transfected cells; host or cells: Chinese hamster ovary cells (CHO)
Description: Test Example 1 Inhibitory Effect on Phosphorylation of PDGF Receptor
The test was carried out according to the method described in the literature [Dah-Shuhn et al., J. Biol. Chem., 266, 413-418 (1991)], using Chinese hamster ovary cells (CHO) wherein human β-PDGF receptor cDNA was introduced and expressed.

T1 sequence (P09619 33-1106): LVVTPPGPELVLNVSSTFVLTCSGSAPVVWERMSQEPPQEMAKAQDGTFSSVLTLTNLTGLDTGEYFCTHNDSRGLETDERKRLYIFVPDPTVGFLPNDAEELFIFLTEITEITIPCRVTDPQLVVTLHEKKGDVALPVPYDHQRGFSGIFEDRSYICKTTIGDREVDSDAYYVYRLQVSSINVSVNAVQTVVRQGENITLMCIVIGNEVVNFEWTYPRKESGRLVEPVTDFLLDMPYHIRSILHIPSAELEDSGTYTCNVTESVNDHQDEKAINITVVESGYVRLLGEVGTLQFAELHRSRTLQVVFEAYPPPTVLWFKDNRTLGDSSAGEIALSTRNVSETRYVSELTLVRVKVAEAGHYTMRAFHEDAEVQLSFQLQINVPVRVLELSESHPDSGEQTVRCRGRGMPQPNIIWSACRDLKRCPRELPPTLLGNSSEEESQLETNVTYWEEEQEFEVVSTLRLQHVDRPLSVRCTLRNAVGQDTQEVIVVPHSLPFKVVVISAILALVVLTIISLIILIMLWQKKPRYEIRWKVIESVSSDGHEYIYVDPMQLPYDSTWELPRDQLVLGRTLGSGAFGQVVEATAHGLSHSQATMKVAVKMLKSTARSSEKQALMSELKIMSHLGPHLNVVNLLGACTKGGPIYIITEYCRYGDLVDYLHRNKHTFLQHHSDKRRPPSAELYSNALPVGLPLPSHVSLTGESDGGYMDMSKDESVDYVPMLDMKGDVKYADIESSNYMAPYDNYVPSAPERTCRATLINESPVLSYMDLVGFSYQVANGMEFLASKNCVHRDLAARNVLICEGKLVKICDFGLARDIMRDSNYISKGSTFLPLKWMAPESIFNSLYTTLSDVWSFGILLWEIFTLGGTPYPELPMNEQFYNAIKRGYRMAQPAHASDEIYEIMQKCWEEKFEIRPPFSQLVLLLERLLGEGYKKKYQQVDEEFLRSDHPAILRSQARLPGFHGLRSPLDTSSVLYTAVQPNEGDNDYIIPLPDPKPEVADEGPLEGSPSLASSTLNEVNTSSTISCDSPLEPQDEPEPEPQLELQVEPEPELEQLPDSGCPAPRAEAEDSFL

Row | SMILES | IC50 (human β-PDGF receptor) [µM] | melting point [°C]
1 | COc1cc2ncnc(N3CCN(C(=S)Nc4ccc5c(c4)CCC5)CC3)c2cc1OC [Compound 9, 4-(6,7-Dimethoxy-4-quinazolinyl)-N-(5-indanyl)-1-piperazinethiocarboxamide] | 0.67 | 207 to 210
2 | COc1cc2ncnc(N3CCN(C(=O)Nc4ccc(Cl)c(Cl)c4)CC3)c2cc1OC [Compound 54, N-(3,4-Dichlorophenyl)-4-(6,7-dimethoxy-4-quinazolinyl)-1-piperazinecarboxamide] | 0.71 | 221 to 222
3 | COc1cc2ncnc(N3CCN(C(=S)Nc4ccc(N(C)C)cc4)CC3)c2cc1OC [Compound 71, 4-(6,7-Dimethoxy-4-quinazolinyl)-N-(4-dimethylaminophenyl)-1-piperazinethiocarboxamide] | 0.94 | 226 to 227
4 | COc1cc2ncnc(N3CCN(C(=S)NCc4cccnc4)CC3)c2cc1OC [Compound 98, 4-(6,7-Dimethoxy-4-quinazolinyl)-N-(3-picolyl)-1-piperazinethiocarboxamide] | 0.22 | 104 to 106
5 | CCOc1cc2ncnc(N3CCN(C(=O)Nc4ccc([N+](=O)[O-])cc4)CC3)c2cc1OCC [Compound 105, 4-(6,7-Diethoxy-4-quinazolinyl)-N-(4-nitrophenyl)-1-piperazinecarboxamide] | 0.44 | 120 to 121
6 | COc1cc2ncnc(N3CCN(C(=S)NCCCc4ccccc4)CC3)c2cc1OC [Compound 135, 4-(6,7-Dimethoxy-4-quinazolinyl)-N-(3-phenylpropyl)-1-piperazinethiocarboxamide] | 0.46 | 147 to 148
7 | COc1cc2ncnc(N3CCN(C(=S)NCc4cccc(Cl)c4)CC3)c2cc1OC [Compound 177, N-(3-Chlorobenzyl)-4-(6,7-dimethoxy-4-quinazolinyl)-1-piperazinethiocarboxamide] | 0.77 | 117 to 119
8 | COc1cc2ncnc(N3CCN(C(=O)NCc4ccc(Cl)cc4)CC3)c2cc1OC [Compound 178, N-(4-Chlorobenzyl)-4-(6,7-dimethoxy-4-quinazolinyl)-1-piperazinecarboxamide] | 0.41 | 203 to 204
9 | COc1cc2ncnc(N3CCN(C(=S)NCCc4ccc(Cl)cc4)CC3)c2cc1OC [Compound 180, N-[2-(4-Chlorophenyl)ethyl]-4-(6,7-dimethoxy-4-quinazolinyl)-1-piperazinethiocarboxamide] | 1 | 106 to 109
10 | COc1cc2ncnc(N3CCN(C(=O)NCc4ccc(OC(F)(F)F)cc4)CC3)c2cc1OC [Compound 203, 4-(6,7-Dimethoxy-4-quinazolinyl)-N-(4-trifluoromethoxybenzyl)-1-piperazinecarboxamide] | 1.39 | 176 to 177
11 | COc1cc2ncnc(N3CCN(C(=S)Nc4ccc(CNC(=O)OC(C)(C)C)cc4)CC3)c2cc1OC [Compound 228, N-[4-(N-tert-Butoxycarbonylaminomethyl)phenyl]-4-(6,7-dimethoxy-4-quinazolinyl)-1-piperazinethiocarboxamide] | 0.29 | 123 to 126
12 | COc1cc2ncnc(N3CCN(C(=O)Nc4ccc(N=Nc5ccccc5)cc4)CC3)c2cc1OC [Compound 229, 4-(6,7-Dimethoxy-4-quinazolinyl)-N-(4-phenylazophenyl)-1-piperazinecarboxamide] | 0.31 | 244 to 246
13 | COc1cc2ncnc(N3CCN(C(=S)NCc4ccc(C#N)cc4)CC3)c2cc1OC [Compound 240, N-(4-Cyanobenzyl)-4-(6,7-dimethoxy-4-quinazolinyl)-1-piperazinethiocarboxamide] | 0.5 | 186 to 187
14 | COc1cc2ncnc(N3CCN(C(=S)Nc4cccc(C(C)=O)c4)CC3)c2cc1OC [Compound 241, N-(3-Acetylphenyl)-4-(6,7-dimethoxy-4-quinazolinyl)-1-piperazinethiocarboxamide] | 0.4 | 192 to 193
15 | COc1cc2ncnc(N3CCN(C(=S)Nc4ccc(S(=O)(=O)N5CCCCC5)cc4)CC3)c2cc1OC [Compound 254, 4-(6,7-Dimethoxy-4-quinazolinyl)-N-(4-piperidinosulfonylphenyl)-1-piperazinethiocarboxamide] | 0.46 | 149 to 150
16 | COc1cc2ncnc(N3CCN(C(=O)Nc4ccoc4)CC3)c2cc1OC [Compound 255, 4-(6,7-Dimethoxy-4-quinazolinyl)-N-(3-furyl)-1-piperazinecarboxamide] | 0.66 | 213 to 215
17 | COc1cc2ncnc(N3CCN(C(=O)Nc4ccc(-n5cccc5)nc4)CC3)c2cc1OC [Compound 283, 4-(6,7-Dimethoxy-4-quinazolinyl)-N-[2-(1-pyrrolyl)-5-pyridyl]-1-piperazinecarboxamide] | 1.4 | 252 to 254
18 | Cc1ccc2ncnc(N3CCN(C(=O)Nc4ccc(Oc5ccccc5)cc4)CC3)c2c1 [Compound 292, 4-(6-Methyl-4-quinazolinyl)-N-(4-phenoxyphenyl)-1-piperazinecarboxamide] | 0.76 | 244 to 246

Row | SMILES | IC50 (human β-PDGF receptor) [µM] | melting point [°C]
19 | O=C(Nc1ccc(Oc2ccccc2)cc1)N1CCN(c2ncnc3ccc(F)cc23)CC1 [Compound 297, 4-(6-Fluoro-4-quinazolinyl)-N-(4-phenoxyphenyl)-1-piperazinecarboxamide] | 0.33 | 186 to 187
20 | Cc1ccc2c(N3CCN(C(=O)Nc4ccc(Oc5ccccc5)cc4)CC3)ncnc2c1 [Compound 312, 4-(7-Methyl-4-quinazolinyl)-N-(4-phenoxyphenyl)-1-piperazinecarboxamide] | 0.26 | 184 to 185
21 | Cc1ccc2nc(C(F)(F)F)cc(N3CCN(C(=O)Nc4ccc(Oc5ccccc5)cc4)CC3)c2c1[N+](=O)[O-] [Compound 413, 4-(6-Methyl-5-nitro-2-trifluoromethyl-4-quinolyl)-N-(4-phenoxyphenyl)-1-piperazinecarboxamide] | – | 197 to 198
22 | O=C(Nc1ccc(Oc2ccccc2)cc1)N1CCN(c2nncc3ccccc23)CC1 [Compound 414, N-(4-Phenoxyphenyl)-4-(1-phthalazinyl)-1-piperazinecarboxamide] | – | 202 to 203
23 | O=C(Nc1ccc(Oc2ccccc2)cc1)N1CCN(c2nnc(Cl)c3ccccc23)CC1 [Compound 416, 4-(4-Chloro-1-phthalazinyl)-N-(4-Phenoxyphenyl)-1-piperazinecarboxamide] | – | 196 to 197
24 | O=C(Nc1ccc(Oc2ccccc2)cc1)N1CCN(c2nnc(Cc3ccccc3)c3ccccc23)CC1 [Compound 418, 4-(4-Benzyl-1-phthalazinyl)-N-(4-phenoxyphenyl)-1-piperazinecarboxamide] | – | 100 to 101
25 | CCn1c(=O)n(CC)c2cc3c(N4CCN(C(=O)Nc5ccc(Oc6ccccc6)cc5)CC4)nncc3cc21 [Compound 419, 4-(1,3-Diethyl-1,3-dihydro-2-oxo-2H-imidazo[4,5-g]phthalazin-5-yl)-N-(4-phenoxyphenyl)-1-piperazinecarboxamide] | – | 125 to 128
26 | CCn1c(=O)n(CC)c2cc3c(N4CCN(C(=O)Nc5ccc(Oc6ccccc6)cc5)CC4)nnc(Cl)c3cc21 [Compound 421, 4-(5-Chloro-1,3-diethyl-1,3-dihydro-2-oxo-2H-imidazo[4,5-g]phthalazin-8-yl)-N-(4-phenoxyphenyl)-1-piperazinecarboxamide] | – | 172 to 173
27 | O=C(Nc1ccc(Oc2ccccc2)cc1)N1CCN(c2nccc3ccccc23)CC1 [Compound 422, 4-(1-Isoquinolyl)-N-(4-phenoxyphenyl)-1-piperazinecarboxamide] | – | 122 to 123
28 | COc1cc2ccnc(N3CCN(C(=O)Nc4ccc(Oc5ccccc5)cc4)CC3)c2cc1OC [Compound 423, 4-(6,7-Dimethoxy-1-isoquinolyl)-N-(4-phenoxyphenyl)-1-piperazinecarboxamide] | – | 178 to 179
29 | COc1cc2ccnc(N3CCN(C(=S)NCc4ccccc4)CC3)c2cc1OC [Compound 424, N-Benzyl-4-(6,7-dimethoxy-1-isoquinolyl)-1-piperazinethiocarboxamide] | – | 171 to 172
30 | COc1cc2nncc(N3CCN(C(=O)Nc4ccc(Oc5ccccc5)cc4)CC3)c2cc1OC [Compound 426, 4-(6,7-Dimethoxy-4-cinnolinyl)-N-(4-phenoxyphenyl)-1-piperazinecarboxamide] | – | 165 to 167
31 | COc1cc2nncc(N3CCN(C(=S)NCc4cccnc4)CC3)c2cc1OC [Compound 427, 4-(6,7-Dimethoxy-4-cinnolinyl)-N-(3-picolyl)-1-piperazinethiocarboxamide] | – | 181 to 190
32 | COc1cc2ncnc(N3CCCN(C(=O)Nc4ccc(Oc5ccccc5)cc4)CC3)c2cc1OC [Compound 435, 4-(6,7-Dimethoxy-4-quinazolinyl)-N-(4-phenoxyphenyl)-1-homopiperazinecarboxamide] | – | 93 to 96
33 | COc1cc2ncnc(N3CCCN(C(=S)NCc4ccccc4)CC3)c2cc1OC [Compound 436, N-Benzyl-4-(6,7-dimethoxy-4-quinazolinyl)-1-homopiperazinethiocarboxamide] | – | 86 to 88
34 | COc1cc2ncnc(N3CCN(C(=S)NCC(=O)c4ccccc4)CC3)c2cc1OC [Compound 445, 4-(6,7-Dimethoxy-4-quinazolinyl)-N-phenacyl-1-piperazinethiocarboxamide] | – | 99 to 100
35 | COc1cc2ncnc(N3CCN(C(=S)NCC4(c5ccc(Cl)cc5)CC4)CC3)c2cc1OC [Compound 446, N-[1-(4-Chlorophenyl)cyclopropylmethyl]-4-(6,7-dimethoxy-4-quinazolinyl)-1-piperazinethiocarboxamide] | – | 108 to 111
